Here are results for 17 molecules from patent US12509462B2, “3-(phenylsulfonyl)-[1,2,3]triazolo[1,5A]quinazolin-5(4H)-one derivatives” (BIOVERSYS AG, priority 2018, dated 2025).

Series [1] has as its system MRSA. The experiment in a line: MIC by broth microdilution in CA-MHB (CLSI). Particulars: Staphylococcus aureus, 18 h, read-out: MIC on MRSA.
Experimental: Minimal inhibitory concentrations (MIC) were determined by broth microdilution method in cation-adjusted Mueller-Hinton (CA-MHB) broth according to the CLSI guideline. From an overnight culture plate, cells were resuspended in 0.9% (w/v) saline solution and bacterial inoculum was prepared in CA-MHB with 5×10^5 CFU/ml. Compounds were two-fold serially diluted in CA-MHB and 10 μL of this 10× concentrated samples were added into the 96-well plate. 90 μL of bacterial suspension was finally added to the compounds. Plates were covered and incubated without shaking at 35° C. for 18 hours. Every experiment contained an antibiotic as quality control. MIC was determined visually as the lowest concentration of a compound that prevents visible growth of the bacteria and the plates were scanned for documentation.
Series [2] has as its system HepG2. As to conditions: 48 h.
In series [3] the test system is Staphylococcus aureus MRSA strain (USA300 isolate). The experiment in a line: Hemolysis Assay II (exotoxin-mediated lysis of rabbit red blood cells by culture filtrate). It counts as cell-based. As to conditions: Erythrocyte; for minimal effective concentration / IC95: 18 h; for minimal effective concentration: absorbance <2× the average of the complete inhibition control, read-out: Hemolysis assay II MEC (minimal effective concentration); for IC95: read-out: Hemolysis assay II IC95; for IC50: 18 h culture in CA-MHB, rabbit red blood cells.

Values after ≈ are worked out from the molar mass of the structure shown. Read-outs that look alike come from different tables or passages of the source.

One may read the MIC as the lowest concentration that inhibits growth of the organism. Usually IC95 stands for the concentration needed for an effect of 95%. As a reminder, the IC50 is the point on the concentration scale where inhibition reaches its midpoint. Read a low IC50 as greater potency. In the case of `COc1ccc2c(=O)[nH]c3c(S(=O)(=O)c4ccc(C5CC5)cc4)nnn3c2c1` [Compound 21, 3-(4-cyclopropylphenyl)sulfonyl-8-methoxy-4H-triazolo[1,5-a]quinazolin-5-one], the MIC in series [1] was no less than 100 µM. Also, in series [2] (human), the “LD50 HepG2” value is listed as “>=100 μM”. Further, in series [3], the minimal effective concentration was found to be 4 µg/mL, the IC95 was 3.4 µg/mL (≈ 8.58 µM) and the IC50 turned out to be 1.5 µg/mL (≈ 3.78 µM).
With `COc1ccc2c(=O)[nH]c3c(S(=O)(=O)c4ccc(C5CC5)cc4C)nnn3c2c1` [Compound 27, 3-(4-cyclopropyl-2-methyl-phenyl)sulfonyl-8-methoxy-4H-triazolo[1,5-a]quinazolin-5-one], in series [1], the MIC was no less than 100 µM. In addition, the “LD50 HepG2” value in series [2] (human) is reported as “>=100 μM”. For the same molecule, in series [3], the minimal effective concentration was determined as 2 µg/mL, the IC95 was found to be 1.9 µg/mL (≈ 4.63 µM) and the IC50 was 0.15 µg/mL (≈ 0.365 µM).
For the molecule `CCc1ccc(S(=O)(=O)c2nnn3c2[nH]c(=O)c2ccc(OC)cc23)c(C)c1` [Compound 28, 3-(4-ethyl-2-methyl-phenyl)sulfonyl-8-methoxy-4H-triazolo[1,5-a]quinazolin-5-one], the MIC in series [1] is no less than 100 µM. In addition, in series [2] (human), the “LD50 HepG2” value was “>=100 μM”. Besides, in series [3], the minimal effective concentration is 8 µg/mL, the IC95 worked out at 4.5 µg/mL (≈ 11.3 µM) and the IC50 was determined as 2 µg/mL (≈ 5.02 µM).
With `Cc1ccc(S(=O)(=O)c2nnn3c2[nH]c(=O)c2ccc(Br)cc23)c(C)c1` [Compound 38, 8-bromo-3-(2,4-dimethylphenyl)sulfonyl-4H-triazolo[1,5-a]quinazolin-5-one], the MIC in series [1] was 50 µM (≈ 21.7 µg/mL). In addition, the “LD50 HepG2” value in series [2] (human) is “>=100 μM”. Besides, in series [3], the minimal effective concentration was 4 µg/mL, the IC95 was determined as 4.6 µg/mL (≈ 10.6 µM) and the IC50 came out at 1.4 µg/mL (≈ 3.23 µM).
For `COCCCOc1ccc2c(=O)[nH]c3c(S(=O)(=O)c4ccc(C)cc4C)nnn3c2c1` [Compound 40, 3-(2,4-dimethylphenyl)sulfonyl-8-(3-methoxypropoxy)-4H-triazolo[1,5-a]quinazolin-5-one] the same measures were no less than 100 µM, “>=100 μM”, 3 µg/mL, 4.4 µg/mL (≈ 9.94 µM) and 1.05 µg/mL (≈ 2.37 µM).
Take `Cc1ccc(S(=O)(=O)c2nnn3c2[nH]c(=O)c2ccc(OCCCC#N)cc23)c(C)c1` [Compound 41, 4-[[3-(2,4-dimethylphenyl)sulfonyl-5-oxo-4H-triazolo[1,5-a]quinazolin-8-yl]oxy]butanenitrile]: the MIC in series [1] is no less than 100 µM. Besides, the “LD50 HepG2” value in series [2] (human) was “>=100 μM”. Besides, in series [3], the minimal effective concentration came to 2 µg/mL, the IC95 came out at 2.5 µg/mL (≈ 5.71 µM) and half-maximal inhibition (IC50) was put at 0.65 µg/mL (≈ 1.49 µM).
As for `Cc1ccc(S(=O)(=O)c2nnn3c2[nH]c(=O)c2ccc(I)cc23)c(C)c1` [Compound 42, 3-(2,4-dimethylphenyl)sulfonyl-8-iodo-4H-triazolo[1,5-a]quinazolin-5-one], the MIC in series [1] is no less than 100 µM. Further, in series [2] (human), the “LD50 HepG2” value is given as “>=100 μM”. For the same molecule, in series [3], the minimal effective concentration was determined as 6 µg/mL, the IC95 is 10.1 µg/mL (≈ 20.9 µM) and the concentration for half-maximal inhibition (IC50) was found to be 2.05 µg/mL (≈ 4.27 µM).
For `COCCOc1ccc2c(=O)[nH]c3c(S(=O)(=O)c4ccc(C)cc4C)nnn3c2c1` [Compound 43, 3-(2,4-dimethylphenyl)sulfonyl-8-(2-methoxyethoxy)-4H-triazolo[1,5-a]quinazolin-5-one], the MIC in series [1] was no less than 100 µM. Further, the “LD50 HepG2” value in series [2] (human) is “>=100 μM”. In series [3], the minimal effective concentration is 2 µg/mL, the IC95 came to 3.5 µg/mL (≈ 8.17 µM) and the IC50 was determined as 0.8 µg/mL (≈ 1.87 µM).
For `Cc1cc(Br)c(S(=O)(=O)c2nnn3c2[nH]c(=O)c2ccccc23)cc1C` [Compound 44, 3-(2-bromo-4,5-dimethyl-phenyl)sulfonyl-4H-triazolo[1,5-a]quinazolin-5-one] the same measures were no less than 100 µM, “>=100 μM”, 6 µg/mL, 7.2 µg/mL (≈ 16.6 µM) and 1.85 µg/mL (≈ 4.27 µM).
As for `Cc1ccc(S(=O)(=O)c2nnn3c2[nH]c(=O)c2ccc(N4CCC4)cc23)c(C)c1` [Compound 45, 8-(azetidin-1-yl)-3-(2,4-dimethylphenyl)sulfonyl-4H-triazolo[1,5-a]quinazolin-5-one], the MIC in series [1] was no less than 100 µM. In addition, in series [2] (compounds 0.8-100 μM, SEAP readout), the “LD50 HepG2” value is listed as “>=100 μM”. Further, in series [3], the minimal effective concentration was determined as 6 µg/mL; the IC95 turned out to be 8.85 µg/mL (≈ 21.6 µM); the midpoint of inhibition, the IC50, lay at 1.7 µg/mL (≈ 4.15 µM).
As for `Cc1ccc(S(=O)(=O)c2nnn3c2[nH]c(=O)c2cc(O)ccc23)c(C)c1` [Compound 46, 3-(2,4-dimethylphenyl)sulfonyl-7-hydroxy-4H-triazolo[1,5-a]quinazolin-5-one], the MIC in series [1] is no less than 100 µM. Besides, in series [2] (human), the “LD50 HepG2” value is listed as “>=100 μM”. Further, in series [3], the minimal effective concentration is 1 µg/mL, the IC95 is 1.4 µg/mL (≈ 3.78 µM) and the IC50 was determined as 0.4 µg/mL (≈ 1.08 µM).
On to `COc1cccc2c(=O)[nH]c3c(S(=O)(=O)c4ccc(C)cc4C)nnn3c12` [Compound 47, 3-(2,4-dimethylphenyl)sulfonyl-9-methoxy-4H-triazolo[1,5-a]quinazolin-5-one], for which the MIC in series [1] is no less than 100 µM. Besides, the “LD50 HepG2” value in series [2] (human) was “>=100 μM”. Besides, in series [3], the minimal effective concentration amounted to 2 µg/mL, the IC95 came out at 1.95 µg/mL (≈ 5.07 µM) and the IC50 is 0.5 µg/mL (≈ 1.3 µM).
Regarding `Cc1ccc(S(=O)(=O)c2nnn3c2[nH]c(=O)c2ccc(NCCN4CCOCC4)cc23)c(C)c1` [Compound 48, 3-(2,4-dimethylphenyl)sulfonyl-8-(2-morpholinoethylamino)-4H-triazolo[1,5-a]quinazolin-5-one], the MIC in series [1] came out at 50 µM (≈ 24.1 µg/mL). In series [2] (human), the “LD50 HepG2” value was determined as 50 µM. Also, in series [3], the minimal effective concentration was 8 µg/mL, the IC95 worked out at 7 µg/mL (≈ 14.5 µM) and the IC50 came out at 1.6 µg/mL (≈ 3.32 µM).
For the molecule `Cc1ccc(S(=O)(=O)c2nnn3c2[nH]c(=O)c2ccc(NC4CCOCC4)cc23)c(C)c1` [Compound 49, 3-(2,4-dimethylphenyl)sulfonyl-8-(tetrahydropyran-4-ylamino)-4H-triazolo[1,5-a]quinazolin-5-one], the minimum inhibitory concentration (MIC) in series [1] is no less than 100 µM. Moreover, the “LD50 HepG2” value in series [2] (human) came out at 50 µM. For the same molecule, in series [3], the minimal effective concentration came out at 3 µg/mL, the IC95 was 4.5 µg/mL (≈ 9.92 µM) and the IC50 is 0.75 µg/mL (≈ 1.65 µM).
Take `Cc1ccc(S(=O)(=O)c2nnn3c2[nH]c(=O)c2cccc(O)c23)c(C)c1` [Compound 50, 3-(2,4-dimethylphenyl)sulfonyl-9-hydroxy-4H-triazolo[1,5-a]quinazolin-5-one]: the MIC in series [1] is no less than 100 µM. The “LD50 HepG2” value in series [2] (human) is “>=100 μM”. In addition, in series [3], the minimal effective concentration worked out at 3 µg/mL, the IC95 turned out to be 3.75 µg/mL (≈ 10.1 µM) and the IC50 came to 1.05 µg/mL (≈ 2.83 µM).
For `Cc1cc(C)c(S(=O)(=O)c2nnn3c2[nH]c(=O)c2ccccc23)c(Cl)c1` [Compound 51, 3-(2-chloro-4,6-dimethyl-phenyl)sulfonyl-4H-triazolo[1,5-a]quinazolin-5-one], in series [1], the MIC is no less than 100 µM. Further, the “LD50 HepG2” value in series [2] (human) was “>=100 μM”. In series [3], the minimal effective concentration worked out at 6 µg/mL, the IC95 was found to be 5.25 µg/mL (≈ 13.5 µM) and the IC50 is 1.9 µg/mL (≈ 4.89 µM).
Consider `Cc1cc(C)c(S(=O)(=O)c2nnn3c2[nH]c(=O)c2ccccc23)c(Br)c1` [Compound 52, 3-(2-bromo-4,6-dimethyl-phenyl)sulfonyl-4H-triazolo[1,5-a]quinazolin-5-one], for which, in series [1], the MIC is no less than 100 µM. Besides, the “LD50 HepG2” value in series [2] (human) is “>=100 μM”. Further, in series [3], the minimal effective concentration turned out to be 6 µg/mL, the IC95 came to 6.1 µg/mL (≈ 14.1 µM) and half-maximal inhibition (IC50) required 1.95 µg/mL (≈ 4.5 µM).
